Reference: paper PMC6689897, “Drugging an undruggable pocket on KRAS” (Proceedings of the National Academy of Sciences of the …, 2019)

How the values were obtained:
[1] = molecular target: SOScat-catalyzed nucleotide exchange on RAS (Homo sapiens, UniProt P01116); assay: SOS1 nucleotide exchange assay (BODIPY-GDP)
GCP-KRAS^G12D,C118S = GCP-KRAS^G12D,C118S (Homo sapiens, UniProt P01116, C118S/G12D); assay: NMR KD, T35 construct (G12D, C118S), GCP-bound; format: binding; conditions: versus 17
Protocol: 91 were incubated with 500 µM fragment in a 2.5 mm NMR tube at 298K and 1%
93 dimension. Processing and analysis were accomplished with Topspin 3.0 (Bruker
94 BioSpin). Binders were identified by manual comparison of spectra in the presence of a
95 fragment and the respective reference spectrum.
98 Measurement of dissociation constants KD for the compounds synthesized.
99 was initially the only method that could provide K Ds for the weakly binding molecules to
101 3mm NMR tubes (170µL filling) at a protein concentration of 70-100µM.

GDP-KRASG12D = GDP-KRASG12D (Homo sapiens, UniProt P01116, G12D); assay: KD(HSQC) NMR; format: binding
Protocol: (§1) 80 difference spectrum. Mixtures of four fragments (each at 250 µM) were incubated in 25
(§2) 82 a mixture of GCP-KRASG12D and GDP-KRASG12V (each 4 µM). Binders were identified
(§3) 83 by comparing pre-recorded reference spectra with the STD difference spectrum.
(§4) 84 Deconvolution and confirmation of primary FBS hits obtained from STD-NMR and
(§5) 85 MST was performed using 2D 1H/15N TROSY NMR experiments(2) collected on a
(§6) 86 Bruker Avance III 600 MHz spectrometer equipped with a 5 mm z-gradient TCI cryo-
(§7) 87 probe. Samples were prepared directly before data acquisition using a Tecan Freedom
(§8) 88 Evo pipetting system and delivered by a Bruker Sample Rail to the magnet. Each sample
(§9) 89 contained either 50 µM 15N labeled GDP-KRASG12D or GCP-KRASG12D in 25 mM Tris-
(§10) 90 d11, 100 mM NaCl, 2 mM MgCl2, 0.5 mM TCEP pH 7.4 and 8% (v/v) D2O. Proteins […]
(§11) 92 d6DMSO. Spectra were recorded with 32 transients and 64 data points in the indirect […]
(§12) 100 support compound optimization. 1H/15N SoFast HMQC experiments(3) were recorded in […]
(§13) 102 recorded on a Avance III 700MHz spectrometer equipped with a cryogenically cooled […]
(§14) 107 DMSO. KDs were calculated from the differences in chemical shift induced by t he small […]
(§15) 109 dimension were calculated according to the following equation: […]
(§16) 120 (MicroCalTM, LLC Northampton, MA). Protein solutions were measured in 20 mM […]
(§17) 125 were analyzed with the MicroCal PEAQ-ITC analysis software package. […]

GCP-KRASG12D = GCP-KRASG12D (Homo sapiens, UniProt P01116, G12D); assay: KD(HSQC) NMR; format: binding
Protocol: as §1, §2, §3, §4, §5, §6, §7, §8, §9, §10, §11, §12, §13, §14, §15, §16, §17

## Cn1cnc(Cn2ccc3ccc(CNCc4[nH]c5ccccc5c4[C@H]4NC(=O)c5ccc(O)cc54)cc32)c1 [Compound 1]
[1]; highest concentrations
  SOScat-mediated exchange: full inhibition
[1]; several concentrations
  SOS1-catalyzed nucleotide exchange: inhibits the rate of nucleotide exchange in a dose-dependent manner

## CN(C)Cc1[nH]c2ccccc2c1[C@H]1NC(=O)c2ccc(O)cc21 [Compound 18]
GCP-KRAS^G12D,C118S
  more potent than nonphenolic matched molecular pair 17: 6 fold
GDP-KRASG12D
  Kd: 16 µM
GCP-KRASG12D
  Kd: 17 µM
